What all share (type): biochemical
In one experiment the target is T1, JNK1 (Homo sapiens, UniProt P45983).
T1 construct: purchased ProQinase GmbH, Freiburg, Germany (assay service)
In words: 33PanQinase radiometric kinase assay, JNK1 (off-target). To be noted: ratio IC50(off-target)/IC50(MKK4). On the procedure:
(§1) The kinase activities of the compounds of the invention were measured using the 33PanQinase® Assay Service provided by ProQinase GmbH, Freiburg, Germany. Details of the assay conditions are disclosed on the website of ProQinase (https://www.proqinase.com/products-services-biochemical-assay-services/kinase-assays). In brief, all kinase assays were performed in 96-well FlashPlates™ from PerkinElmer (Boston, MA, USA) in a 50 μl reaction volume. The reaction cocktail was pipetted in four steps in the following order: • 20 μl of assay buffer (standard buffer) • 5 μl of ATP solution (in H2O) • 5 μl of test compound (in 10% DMSO) • 20 μl enzyme/substrate mix
(§2) The reaction cocktails were incubated at 30° C. for 60 minutes. The reaction is stopped with 50 μl of 2% (v/v) H3PO4, plates were aspirated and washed two times with 200 μl 0.9% (w/v) NaCl. Incorporation of ^33Pi was determined with a microplate scintillation counter (Microbeta, Wallac).
(§3) All assays were performed with a BeckmanCoulter/SAGIAN™ Core System.
(§4) In case of single concentration assays, the potency of the test compound is expressed as % residual activity. […] The fitting method used was a least-squares fit.
(§5) Selectivity of test compounds against BRaf, JNK1 and MKK7, altogether denominated as off-targets was calculated by the ratio of IC50 (off-target)/IC50 (MKK4) and categorized as follows: […]

The target in a further experiment is T2, BRaf (Homo sapiens, UniProt P15056).
T2 construct: purchased ProQinase GmbH, Freiburg, Germany (assay service)
In words: 33PanQinase radiometric kinase assay, BRaf (off-target). As to conditions: ratio IC50(off-target)/IC50(MKK4). The method, then: as §1, §2, §3, §4, §5

In the next experiment the target is T3, MKK4 (Homo sapiens, UniProt P45985).
T3 construct: purchased ProQinase GmbH, Freiburg, Germany (assay service)
T3 sequence (P45985 1-399): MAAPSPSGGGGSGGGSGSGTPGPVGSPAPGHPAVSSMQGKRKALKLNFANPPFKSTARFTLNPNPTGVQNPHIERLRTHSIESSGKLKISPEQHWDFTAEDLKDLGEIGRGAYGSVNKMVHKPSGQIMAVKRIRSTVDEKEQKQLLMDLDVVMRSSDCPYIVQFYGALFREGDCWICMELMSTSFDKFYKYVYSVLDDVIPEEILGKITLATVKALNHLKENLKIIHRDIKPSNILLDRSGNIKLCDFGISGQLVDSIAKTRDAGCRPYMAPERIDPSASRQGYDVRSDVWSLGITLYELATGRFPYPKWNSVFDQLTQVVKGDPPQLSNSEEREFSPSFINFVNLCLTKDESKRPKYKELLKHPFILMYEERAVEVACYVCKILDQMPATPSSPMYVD
In words: 33PanQinase radiometric kinase assay, MKK4. To be noted: category based on IC50-values; ATP at apparent Km; read-out: Potency MKK4. The method, then: as §1, §2, §3, §4

The target in a further experiment is T4, MKK7 (Homo sapiens, UniProt O14733).
T4 construct: purchased ProQinase GmbH, Freiburg, Germany (assay service)
T4 sequence (O14733 1-419): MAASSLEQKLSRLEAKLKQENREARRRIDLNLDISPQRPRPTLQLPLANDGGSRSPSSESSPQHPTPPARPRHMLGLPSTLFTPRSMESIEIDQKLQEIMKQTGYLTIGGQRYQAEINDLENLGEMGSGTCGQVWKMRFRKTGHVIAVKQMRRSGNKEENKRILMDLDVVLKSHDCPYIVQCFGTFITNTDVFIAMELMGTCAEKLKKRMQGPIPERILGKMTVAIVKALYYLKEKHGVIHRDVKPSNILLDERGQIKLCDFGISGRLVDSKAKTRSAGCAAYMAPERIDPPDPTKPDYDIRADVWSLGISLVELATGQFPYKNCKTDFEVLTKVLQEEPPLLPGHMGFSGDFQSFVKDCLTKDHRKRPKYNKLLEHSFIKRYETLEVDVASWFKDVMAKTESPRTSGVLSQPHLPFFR
In words: 33PanQinase radiometric kinase assay, MKK7 (off-target). As to conditions: ratio IC50(off-target)/IC50(MKK4). On the procedure: as §1, §2, §3, §4, §5

Experimental findings from patent US12643895B2, “Heteroaryl-substituted pyrazolo-pyridine protein kinase inhibitors for promoting liver regeneration or reducing or preventing hepatocyte death” (HepaRegeniX GmbH, priority 2019, dated 2026) are described below.

A value given as a limit tells only on which side of the number the result lay.

T2 sequence (P15056 whole entry): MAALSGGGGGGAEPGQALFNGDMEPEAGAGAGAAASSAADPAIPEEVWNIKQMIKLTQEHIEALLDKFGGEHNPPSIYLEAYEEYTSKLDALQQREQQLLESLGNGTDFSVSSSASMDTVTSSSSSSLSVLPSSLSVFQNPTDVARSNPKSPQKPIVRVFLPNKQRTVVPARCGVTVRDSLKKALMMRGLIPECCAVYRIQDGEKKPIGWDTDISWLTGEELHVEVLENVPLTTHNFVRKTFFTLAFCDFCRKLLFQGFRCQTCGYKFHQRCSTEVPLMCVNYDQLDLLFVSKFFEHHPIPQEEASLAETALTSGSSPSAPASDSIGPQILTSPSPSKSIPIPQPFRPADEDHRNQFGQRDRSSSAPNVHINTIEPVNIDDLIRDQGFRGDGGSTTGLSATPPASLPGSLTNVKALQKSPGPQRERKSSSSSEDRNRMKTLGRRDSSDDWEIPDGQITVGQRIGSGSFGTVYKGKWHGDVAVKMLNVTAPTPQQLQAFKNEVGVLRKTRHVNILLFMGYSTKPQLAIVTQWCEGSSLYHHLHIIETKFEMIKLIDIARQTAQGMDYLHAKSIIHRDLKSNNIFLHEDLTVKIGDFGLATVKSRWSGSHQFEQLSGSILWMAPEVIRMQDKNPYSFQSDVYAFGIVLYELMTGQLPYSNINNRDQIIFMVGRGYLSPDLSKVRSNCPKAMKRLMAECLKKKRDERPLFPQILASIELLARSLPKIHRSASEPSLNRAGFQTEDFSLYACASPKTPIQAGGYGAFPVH
T1 sequence (P45983 whole entry): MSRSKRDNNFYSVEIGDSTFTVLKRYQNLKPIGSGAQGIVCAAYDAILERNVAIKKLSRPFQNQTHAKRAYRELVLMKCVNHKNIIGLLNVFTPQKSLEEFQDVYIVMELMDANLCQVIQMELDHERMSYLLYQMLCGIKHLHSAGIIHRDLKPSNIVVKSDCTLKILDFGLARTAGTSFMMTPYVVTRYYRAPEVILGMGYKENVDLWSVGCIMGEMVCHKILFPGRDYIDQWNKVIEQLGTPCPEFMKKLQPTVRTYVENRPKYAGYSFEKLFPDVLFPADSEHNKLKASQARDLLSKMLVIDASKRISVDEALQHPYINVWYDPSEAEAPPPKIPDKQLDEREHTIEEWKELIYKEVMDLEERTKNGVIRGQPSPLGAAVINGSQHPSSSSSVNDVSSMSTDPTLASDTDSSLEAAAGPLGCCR

As to `O=C(c1c(F)ccc(NS(=O)(=O)Cc2ccccc2)c1F)c1n[nH]c2ncc(-c3cnc(C4CC4)nc3)cc12` [Example 1, N-(3-(5-(2-cyclopropylpyrimidin-5-yl)-1H-pyrazolo[3,4-b]pyridine-3-carbonyl)-2,4-difluorophenyl)-1-phenylmethanesulfonamide], the “Selectivity JNK1” value on JNK1 was “◯”. Further, on BRaf, the “Selectivity Braf” value is recorded as “+ (10 ≥ IC50(off-target)/IC50(MKK4) > 3)”. The IC50 at MKK4 was 100 to 1000 nM. In addition, on MKK7, the “Selectivity MKK7” value was “+++ (IC50(off-target)/IC50(MKK4) > 100)”.

As for `CS(=O)(=O)Nc1c(F)ccc(C(=O)c2n[nH]c3ncc(-c4ccc(Cl)cc4)cc23)c1F` [Example 2, N-(3-(5-(4-chlorophenyl)-1H-pyrazolo[3,4-b]pyridine-3-carbonyl)-2,6-difluorophenyl)methanesulfonamide], the “Selectivity JNK1” value at JNK1 is given as “+++ (IC50(off-target)/IC50(MKK4) > 100)”. Besides, on BRaf, the “Selectivity Braf” value is on record as “+++ (IC50(off-target)/IC50(MKK4) > 100)”. For the same compound, the IC50 at MKK4 was under 100 nM. The “Selectivity MKK7” value on MKK7 is given as “+++ (IC50(off-target)/IC50(MKK4) > 100)”.

Consider `CCS(=O)(=O)Nc1c(F)ccc(C(=O)c2n[nH]c3ncc(-c4ccc(Cl)cc4)cc23)c1F` [Example 3, N-(3-(5-(4-chlorophenyl)-1H-pyrazolo[3,4-b]pyridine-3-carbonyl)-2,6-difluorophenyl)ethanesulfonamide], for which the “Selectivity JNK1” value at JNK1 is “++ (100 ≥ IC50(off-target)/IC50(MKK4) > 10)”. At BRaf, the “Selectivity Braf” value is “+++ (IC50(off-target)/IC50(MKK4) > 100)”. Further, on MKK4, the IC50 lay in the range of 100 to 1000 nM. Moreover, at MKK7, the “Selectivity MKK7” value is on record as “+++ (IC50(off-target)/IC50(MKK4) > 100)”.

As to `CCOC(=O)c1ccc(-c2cnc3[nH]nc(C(=O)c4ccc(F)c(NS(C)(=O)=O)c4F)c3c2)cc1` [Example 4, Ethyl 4-(3-(2,4-difluoro-3-(methylsulfonamido)benzoyl)-1H-pyrazolo[3,4-b]pyridin-5-yl)benzoate], the “Selectivity JNK1” value on JNK1 is “++ (100 ≥ IC50(off-target)/IC50(MKK4) > 10)”. Also, the “Selectivity Braf” value on BRaf is listed as “+++ (IC50(off-target)/IC50(MKK4) > 100)”. Further, the IC50 at MKK4 lay within 100 to 1000 nM. The “Selectivity MKK7” value on MKK7 is “+++ (IC50(off-target)/IC50(MKK4) > 100)”.

For the compound `COC(=O)c1ccc(-c2cnc3[nH]nc(C(=O)c4ccc(F)c(NS(C)(=O)=O)c4F)c3c2)cn1` [Example 5, Methyl 5-(3-(2,4-difluoro-3-(methylsulfonamido)benzoyl)-1H-pyrazolo[3,4-b]pyridin-5-yl)picolinate], at JNK1, the “Selectivity JNK1” value is given as “+ (10 ≥ IC50(off-target)/IC50(MKK4) > 3)”. At BRaf, the “Selectivity Braf” value is “+++ (IC50(off-target)/IC50(MKK4) > 100)”. For the same compound, the IC50 on MKK4 was in the range of 1000 to 10000 nM. In addition, the “Selectivity MKK7” value on MKK7 is listed as “++ (100 ≥ IC50(off-target)/IC50(MKK4) > 10)”.

Regarding `CCCS(=O)(=O)Nc1c(F)ccc(C(=O)c2n[nH]c3ncc(-c4cncnc4)cc23)c1F` [Example 6, N-(2,6-difluoro-3-(5-(pyrimidin-5-yl)-1H-pyrazolo[3,4-b]pyridine-3-carbonyl)phenyl)propane-1-sulfonamide], the “Selectivity JNK1” value on JNK1 was “+++ (IC50(off-target)/IC50(MKK4) > 100)”. Further, the “Selectivity Braf” value at BRaf was “+++ (IC50(off-target)/IC50(MKK4) > 100)”. Besides, at MKK4, the IC50 was 100 to 1000 nM. Besides, the “Selectivity MKK7” value at MKK7 is on record as “+++ (IC50(off-target)/IC50(MKK4) > 100)”.

`CCCS(=O)(=O)Nc1c(F)ccc(C(=O)c2n[nH]c3ncc(-c4cnc(C)nc4)cc23)c1F` [Example 7, N-(2,6-difluoro-3-(5-(2-methylpyrimidin-5-yl)-1H-pyrazolo[3,4-b]pyridine-3-carbonyl)phenyl)propane-1-sulfonamide]: the “Selectivity JNK1” value on JNK1 was “+++ (IC50(off-target)/IC50(MKK4) > 100)”. In addition, at BRaf, the “Selectivity Braf” value is reported as “+++ (IC50(off-target)/IC50(MKK4) > 100)”. Besides, on MKK4, the IC50 is under 100 nM. In addition, the “Selectivity MKK7” value on MKK7 is “+++ (IC50(off-target)/IC50(MKK4) > 100)”.
